Assay results published in patent US20120135997A1, “PHARMACEUTICAL COMPOSITION COMPRISING A LACTAM OR BENZENESULFONAMIDE COMPOUND” (Shionogi & Co., Ltd., priority 2009, published 2012).

Key:
Test in all cases: CYP inhibition test, pooled human liver microsomes
Type in all cases: in vitro ADME
CYP3A4 = CYP3A4 (Homo sapiens, UniProt P08684); design: from tissue; host or cells: pooled human liver microsomes; settings: hydroxylation of terfenadine
Description: Using commercially available pooled human liver microsomes and employing typical substrate metabolic reactions of 5 major species of human CYP enzymes (CYP1A2, 2C9, 2C19, 2D6, 3A4), namely, O-deethylation of 7-ethoxyresorufin (CYP1A2), methyl-hydroxylation of tolbutamide (CYP2C9), 4′-hydroxylation of mephenyloin (CYP2C19), O-demethylation of dextromethorphan (CYP2D6), and hydroxylation of terfenadine (CYP3A4), as indicator reactions, the degree of inhibition of each metabolite production by each test compound is evaluated. […] Centrifugation is performed for 15 minutes at 3000 rpm, and each metabolite in the centrifuged supernatant is quantified. Namely, resorufin (CYP1A2 metabolite) is quantified with a fluorescence multilabel counter, and hydroxylated tolbutamide (CYP2C9 metabolite), 4′-hydroxylated mephenyloin (CYP2C19 metabolite), dextrorphan (CYP2D6 metabolite) and alcoholized terfenadine (CYP3A4 metabolite) are quantified with LC/MS/MS. […] The remaining activity (%) at each concentration after adding the test compound solution is calculated, and the […] is calculated from the concentration and inhibition percentage by inverse estimation with the logistic model.

CYP1A2 = molecular target: T1, CYP1A2 (Homo sapiens, UniProt P05177); settings: O-deethylation of 7-ethoxyresorufin
T1 construct: from tissue; host or cells: pooled human liver microsomes
T1 sequence (P05177 1-516): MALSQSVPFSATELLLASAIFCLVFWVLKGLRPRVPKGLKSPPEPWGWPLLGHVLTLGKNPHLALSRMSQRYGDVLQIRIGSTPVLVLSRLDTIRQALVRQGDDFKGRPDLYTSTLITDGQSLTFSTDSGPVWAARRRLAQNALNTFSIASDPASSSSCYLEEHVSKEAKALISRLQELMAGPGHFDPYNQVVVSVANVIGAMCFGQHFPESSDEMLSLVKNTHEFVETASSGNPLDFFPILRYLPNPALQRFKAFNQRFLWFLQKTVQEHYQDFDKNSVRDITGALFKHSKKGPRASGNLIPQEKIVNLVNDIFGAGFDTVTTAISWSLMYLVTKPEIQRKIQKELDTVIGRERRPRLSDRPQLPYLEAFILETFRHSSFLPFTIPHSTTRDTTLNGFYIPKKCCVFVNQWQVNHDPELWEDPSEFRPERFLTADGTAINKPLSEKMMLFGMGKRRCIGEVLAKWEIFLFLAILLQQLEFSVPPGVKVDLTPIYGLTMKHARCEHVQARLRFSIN
Description: (§1) Using commercially available pooled human liver microsomes and employing typical substrate metabolic reactions of 5 major species of human CYP enzymes (CYP1A2, 2C9, 2C19, 2D6, 3A4), namely, O-deethylation of 7-ethoxyresorufin (CYP1A2), methyl-hydroxylation of tolbutamide (CYP2C9), 4′-hydroxylation of mephenyloin (CYP2C19), O-demethylation of dextromethorphan (CYP2D6), and hydroxylation of terfenadine (CYP3A4), as indicator reactions, the degree of inhibition of each metabolite production by each test compound is evaluated. The reaction conditions are as follows: Substrate: 0.5 μmol/L of ethoxyresorufin (CYP1A2), 100 μmol/L of tolbutamide (CYP2C9), 50 μmol/L of S-mephenyloin (CYP2C19), 5 μmol/L of dextromethorphan (CYP2D6), 1 μmol/L of terfenadine (CYP3A4); Reaction time period: 15 minutes; Reaction temperature: 37° C.; Enzyme: pooled human liver microsomes 0.2 mg protein/mL; Test compound concentration: 1, 5, 10 and 20 μmol/L (four different concentrations). As a reaction solution, the respective five substrates, human liver microsomes, and test compound in the aforementioned amounts are added to a 50 mM Hepes buffer in a 96-well plate. NADPH, which is a coenzyme, is added thereto to start the indicator metabolic reaction. The reaction proceeds for 15 minutes at 37° C., and the solution of methanol/acetonitrile=1/1 (v/v) is added so as to terminate the reaction. Centrifugation is performed for 15 minutes at 3000 rpm, and each metabolite in the centrifuged supernatant is quantified. Namely, resorufin (CYP1A2 metabolite) is quantified with a fluorescence multilabel counter, and hydroxylated tolbutamide (CYP2C9 metabolite), 4′-hydroxylated mephenyloin (CYP2C19 metabolite), dextrorphan (CYP2D6 metabolite) and alcoholized terfenadine (CYP3A4 metabolite) are quantified with LC/MS/MS. Control (100%) is prepared by adding only DMSO, a solvent to dissolve the test compound, to the reaction system. The remaining activity (%) at each concentration after adding the test compound solution is calculated, and the […] is calculated from the concentration and inhibition percentage by inverse estimation with the logistic model.

CYP2C19 = molecular target: T2, CYP2C19 (Homo sapiens, UniProt P33261); settings: 4′-hydroxylation of mephenyloin
T2 construct: from tissue; host or cells: pooled human liver microsomes
T2 sequence (P33261 whole entry): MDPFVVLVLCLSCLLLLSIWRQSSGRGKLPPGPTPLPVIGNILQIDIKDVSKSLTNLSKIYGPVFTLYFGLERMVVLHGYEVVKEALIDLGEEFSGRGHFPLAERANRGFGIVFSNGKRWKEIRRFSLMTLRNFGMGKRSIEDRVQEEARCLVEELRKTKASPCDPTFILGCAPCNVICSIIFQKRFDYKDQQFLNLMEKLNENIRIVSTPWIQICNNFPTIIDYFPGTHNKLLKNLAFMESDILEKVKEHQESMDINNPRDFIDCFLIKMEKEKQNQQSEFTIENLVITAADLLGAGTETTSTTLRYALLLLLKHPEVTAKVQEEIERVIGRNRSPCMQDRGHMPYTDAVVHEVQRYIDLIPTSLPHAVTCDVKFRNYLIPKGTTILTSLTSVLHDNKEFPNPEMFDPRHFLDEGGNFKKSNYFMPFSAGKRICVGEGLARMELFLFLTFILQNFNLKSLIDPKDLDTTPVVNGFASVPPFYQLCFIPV
Description: as §1

CYP2C9 = molecular target: T3, CYP2C9 (Homo sapiens, UniProt P11712); settings: methyl-hydroxylation of tolbutamide
T3 construct: from tissue; host or cells: pooled human liver microsomes
T3 sequence (P11712 whole entry): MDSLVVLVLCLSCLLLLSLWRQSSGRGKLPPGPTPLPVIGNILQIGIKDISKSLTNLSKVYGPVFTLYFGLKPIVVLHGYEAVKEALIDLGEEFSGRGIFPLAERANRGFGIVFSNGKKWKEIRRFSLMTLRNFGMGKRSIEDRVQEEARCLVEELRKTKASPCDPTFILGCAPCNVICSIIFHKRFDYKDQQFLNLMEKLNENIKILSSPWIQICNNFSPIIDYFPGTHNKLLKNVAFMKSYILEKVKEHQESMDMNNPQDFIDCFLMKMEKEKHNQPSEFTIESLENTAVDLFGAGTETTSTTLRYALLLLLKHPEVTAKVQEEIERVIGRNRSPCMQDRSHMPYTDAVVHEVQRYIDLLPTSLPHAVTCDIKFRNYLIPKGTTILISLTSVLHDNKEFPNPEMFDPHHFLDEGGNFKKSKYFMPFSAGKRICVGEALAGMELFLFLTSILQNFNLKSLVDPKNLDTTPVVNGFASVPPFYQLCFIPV
Description: as §1

CYP2D6 = molecular target: T4, CYP2D6 (Homo sapiens, UniProt P10635); settings: O-demethylation of dextromethorphan
T4 construct: from tissue; host or cells: pooled human liver microsomes
T4 sequence (P10635 whole entry): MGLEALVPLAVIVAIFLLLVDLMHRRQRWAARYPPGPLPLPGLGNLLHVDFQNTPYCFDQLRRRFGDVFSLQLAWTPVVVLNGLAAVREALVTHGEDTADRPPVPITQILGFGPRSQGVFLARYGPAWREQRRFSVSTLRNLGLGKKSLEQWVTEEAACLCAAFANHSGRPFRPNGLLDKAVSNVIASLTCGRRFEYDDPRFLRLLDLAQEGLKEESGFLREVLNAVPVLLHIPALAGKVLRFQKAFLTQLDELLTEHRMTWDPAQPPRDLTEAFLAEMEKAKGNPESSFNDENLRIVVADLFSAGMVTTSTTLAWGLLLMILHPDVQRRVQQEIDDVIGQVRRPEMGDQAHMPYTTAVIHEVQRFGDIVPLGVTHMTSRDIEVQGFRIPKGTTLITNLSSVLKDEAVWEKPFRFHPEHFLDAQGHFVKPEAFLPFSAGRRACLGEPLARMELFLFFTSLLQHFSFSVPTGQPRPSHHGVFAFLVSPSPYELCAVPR
Description: as §1

Measured: IC50

Chain of CYP3A4 (P08684 whole entry): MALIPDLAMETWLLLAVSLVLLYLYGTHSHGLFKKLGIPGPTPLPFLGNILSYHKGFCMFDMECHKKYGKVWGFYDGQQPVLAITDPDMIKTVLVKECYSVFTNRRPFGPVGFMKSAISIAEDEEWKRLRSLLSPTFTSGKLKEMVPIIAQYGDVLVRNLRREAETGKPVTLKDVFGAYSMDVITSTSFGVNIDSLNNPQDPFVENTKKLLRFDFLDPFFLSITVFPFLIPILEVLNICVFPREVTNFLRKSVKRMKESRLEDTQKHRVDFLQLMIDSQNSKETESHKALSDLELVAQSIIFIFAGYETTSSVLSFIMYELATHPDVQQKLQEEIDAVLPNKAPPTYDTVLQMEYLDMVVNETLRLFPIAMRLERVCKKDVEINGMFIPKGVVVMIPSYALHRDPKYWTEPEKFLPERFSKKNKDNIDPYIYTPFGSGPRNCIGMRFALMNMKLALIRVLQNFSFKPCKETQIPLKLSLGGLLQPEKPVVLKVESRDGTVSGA

COc1cc(NS(=O)(=O)c2ccccc2CO)ccc1-n1cnc(C)c1 [Compound 121]
> 10 µM: CYP3A4 | CYP1A2 | CYP2C19 | CYP2C9 | CYP2D6
